“And” between values parts separate entries of the source, which are not always exact repeats. Equal entries are not always repeated.
Assay: Phase 1, open-label, crossover drug-drug interaction study: steady-state plasma pharmacokinetics of atorvastatin and its two active metabolites with or without ethyl eicosapentaenoate
Settings: for Effect of co-administration of ethyl eicosapentaenoate on Tmax: atorvastatin 80 mg alone versus with 4 g ethyl eicosapentaenoate; for Change of mean plasma concentrations over time: subjects concomitantly administered 4 g of ethyl eicosapentaenoate, FIG. 1B, 1C
Text: Data for Cmax and AUC0-24 are reported as means (SD); data for Tmax are reported as median values.

[1] = 80 mg atorvastatin co-administered with 4 g ethyl eicosapentaenoate
[2] = atorvastatin + ethyl eicosapentaenoate group divided by atorvastatin only group
[3] = atorvastatin + ethyl eicosapentaenoate versus atorvastatin only

Row | Structure (SMILES) | AUC0-24, mean (80 mg atorvastatin alone) [ng·h/mL] | Cmax, mean (80 mg atorvastatin alone) [ng/mL] | Tmax, median (80 mg atorvastatin alone) [h] | AUC0-24, mean [1] [ng·h/mL] | Cmax, mean [1] [ng/mL] | Tmax, median [1] [h] | AUC0-24, LSGM (least squares geometric mean) (A + EPA = atorvastatin (80 mg) co-administered with ethyl eicosapentaenoate (4 g)) [ng·h/mL] | Effect of co-administration of ethyl eicosapentaenoate on Tmax | AUC0-24, Ratio of LSGM [2] | Cmax, Ratio of LSGM [2] | AUC0-24, 90% CI of the ratio [3] | Cmax, 90% CI of the ratio [3] | Change of mean plasma concentrations over time
1 | CC(C)c1c(C(=O)Nc2ccccc2O)c(-c2ccccc2)c(-c2ccc(F)cc2)n1CCC(O)CC(O)CC(=O)O (stereo not drawn) [2-Hydroxyatorvastatin, 2-hydroxyatorvastatin] | 213.1 | 43.2 | 1.25 | 196.7 | 44.5 | 1.25 | 30.9 | did not significantly affect | 0.91 and 0.92 | 1.04 and 0.97 | 82.8-99.7 and 82.3-103 | 89.1-121 and 80.0-117 | did not significantly change
2 | CC(C)c1c(C(=O)Nc2ccc(O)cc2)c(-c2ccccc2)c(-c2ccc(F)cc2)n1CC[C@@H](O)C[C@@H](O)CC(=O)O [4-Hydroxyatorvastatin, 4-hydroxyatorvastatin] | 36.7 | 4.1 | 1.50 | 34.3 | 4.2 | 1.50 | – | did not significantly affect | – | – | – | – | did not significantly change

From patent US20230310372A1 (Amarin Pharmaceuticals Ireland Limited, priority 2013, published 2023)
